Assay results: paper PMC9599461, “Stereoselectivity in the Membrane Transport of Phenylethylamine Derivatives by Human Monoamine Transporters and Organic Cation Transporters 1, 2, and 3” (Biomolecules, 2022)
Values joined by “and” are separate entries in the source; they are usually repeats but may differ in a detail not shown here. Identical values can stand only once.

Tests used:
[1] = test system: human neuroblastoma cells; set-up: method as in PMID 9085193; details: cited from earlier work
OCT2 A270S variant = experiment: in vitro; details: human, Stereoselectivity OCT2_A270S, 100 μM racemic substance, two minutes; uptake ratio of enantiomers, given as for (S)
OCT2 (wild-type) = target: T1, OCT2 (wild-type) (Homo sapiens, UniProt O15244); experiment: Stereoselective uptake into OCT2 (wild-type)-overexpressing HEK293 cells; details: human, Stereoselectivity OCT2_WT, 100 μM racemic substance, two minutes; uptake ratio of enantiomers, given as for (S)
T1 sequence (O15244 1-555 S270A): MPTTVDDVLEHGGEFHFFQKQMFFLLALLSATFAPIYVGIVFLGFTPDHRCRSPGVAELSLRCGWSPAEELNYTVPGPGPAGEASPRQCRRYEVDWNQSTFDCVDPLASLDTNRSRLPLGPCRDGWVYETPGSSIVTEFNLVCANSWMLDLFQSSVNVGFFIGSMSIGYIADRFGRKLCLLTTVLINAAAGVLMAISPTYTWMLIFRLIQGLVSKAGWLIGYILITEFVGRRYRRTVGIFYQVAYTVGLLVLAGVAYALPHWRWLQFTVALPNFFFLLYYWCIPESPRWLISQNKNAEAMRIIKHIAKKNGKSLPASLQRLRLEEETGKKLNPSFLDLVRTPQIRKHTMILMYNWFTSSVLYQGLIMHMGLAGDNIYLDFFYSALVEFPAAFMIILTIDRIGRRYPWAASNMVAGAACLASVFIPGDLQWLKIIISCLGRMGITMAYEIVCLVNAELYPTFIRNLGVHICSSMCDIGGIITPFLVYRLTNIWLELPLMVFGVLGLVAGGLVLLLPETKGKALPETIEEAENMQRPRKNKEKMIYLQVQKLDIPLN

NET = NET (Homo sapiens, UniProt P23975); experiment: Stereoselective uptake into NET-overexpressing HEK293 cells; details: for Clint ± SEM / Stereoselectivity Vmax / Stereoselectivity Km: NET; for Clint ± SEM: quotient of vmax over Km; for Stereoselectivity Vmax / Stereoselectivity Km: ratio between enantiomers; for Stereoselectivity Vmax: given as for (R) or for 1; for Stereoselectivity Km: given as for (R) or for 1 (first-eluting); for selectivity ratio at 2 min: human, HEK293 cells stably overexpressing human NET;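 on all read-outs here: intracellular enantiomers quantified in cell lysates by chiral HPLC-MS/MS after a 2 min substrate incubation, with uptake normalized to total cellular protein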
DAT = DAT (Homo sapiens, UniProt Q01959); experiment: Stereoselective uptake into DAT-overexpressing HEK293 cells; details: for Clint ± SEM / Stereoselectivity Vmax / Stereoselectivity Km: DAT; for Clint ± SEM: quotient of vmax over Km; for Stereoselectivity Vmax / Stereoselectivity Km: ratio between enantiomers; for Stereoselectivity Vmax: given as for (R) or for 1; for Stereoselectivity Km: given as for (R) or for 1 (first-eluting); for selectivity ratio at 2 min: human, HEK293 cells stably overexpressing human DAT;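 on all read-outs here: intracellular accumulation measured by chiral HPLC-MS/MS in stably transfected HEK293 cells, normalized to total protein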
Experimental: All transport experiments were carried out in HEK293 cells stably overexpressing human MATs or OCTs. […] All cells were regularly cultivated in DMEM supplemented with 10% (v/v) FCS, penicillin (100 U/mL) and streptomycin (100 μg/mL)and kept in culture for no longer than 30 passages.
For the uptake experiments, 300,000 cells were plated in poly-D-lysine precoated 24-well plates 48 h ahead of the transport experiment. On the day of experiment, cells were initially washed once with 37 °C pre-warmed HBSS+ (Hanks buffered salt solution supplemented with 10 mM HEPES) and subsequently incubated with the substrates dissolved in pre-warmed HBSS+ for exactly two minutes. Incubation was stopped by adding ice-cold HBSS+ followed by two washing steps. After this, cells were lysed with 80% acetonitrile containing 10 ng/mL milnacipran as internal standard for high-performance liquid chromatography coupled to tandem mass spectrometry (HPLC-MS/MS) analysis. For every experiment, two additional wells per cell line were lysed using RIPA buffer for protein quantification. Total protein was quantified using the bicinchoninic acid assay [42]. This was later used for normalization of the uptake data.
Intracellularly accumulated test substances were quantified by HPLC-MS/MS analysis using a Shimadzu Nexera HPLC system with a SIL-30AC autosampler, a CTO-20AC column oven, a LC-30AD pump, and a CBM-20A controller (Shimadzu, Kyoto, Japan). Stereoselective chromatography was carried out on a [sequence] CBH HPLC column (100 × 3 mm inner dimension with 5 μM particle size; Sigma-Aldrich, Darmstadt, Germany) with a corresponding 10 × 3 mm guard column. Reversed phased chromatography was carried out using an ammonium acetate (NH4Ac) buffered aqueous mobile phase with isopropyl alcohol (IPA) as organic solvent. […] The order of elution of the enantiomers was obtained from available reference literature [43] or by applying enantiopure reference compounds to the chiral HPLC. […] Given the structural similarity of the investigated substances and the fact that separation was performed on the same column with almost identical mobile phases, we assume that this order of elution for our compound set is always the (R)- before the (S)-enantiomer.
Detection was performed with an API 4000 tandem mass spectrometer (AB SCIEX, Darmstadt, Germany) operating in multiple-reaction-monitoring mode. Quantification was performed using the Analyst 1.6.2 software (AB SCIEX, Darmstadt, Germany) and quantified by comparison to standard curves with known concentrations.
All uptake data were normalized to protein content to account for variation in the number of seeded sells. Transporter-mediated net uptake was calculated by subtracting uptake into empty vector-transfected control cells from uptake into transporter-transfected cells. Kinetic parameters were then determined after non-linear regression following the Michaelis–Menten equation (v = vmax × [S]/(Km + [S])) using GraphPad Prism (Version 5.01 for Windows, GraphPad Software, La Jolla, CA, USA). Vmax refers to the maximum transport velocity and Km is defined as the substance concentration required to reach half of vmax. The intrinsic clearance Clint was calculated as the quotient of vmax over Km.

SERT = SERT (Homo sapiens, UniProt P31645); experiment: Stereoselective uptake into SERT-overexpressing HEK293 cells; details: for Clint ± SEM / Stereoselectivity Vmax / Stereoselectivity Km: SERT; for Clint ± SEM: quotient of vmax over Km; for Stereoselectivity Vmax / Stereoselectivity Km: ratio between enantiomers; for Stereoselectivity Vmax: given as for (R) or for 1; for Stereoselectivity Km: given as for (R) or for 1 (first-eluting); for selectivity ratio at 2 min: human, HEK293 cells stably overexpressing human SERT;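 on all read-outs here: uptake into HEK293 cells stably expressing human SERT over 2 min, enantiomers measured in cell lysate by chiral HPLC-MS/MS, normalized to total protein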
OCT1 = target: T2, OCT1 (Homo sapiens, UniProt O15245); experiment: Stereoselective uptake into OCT1-overexpressing HEK293 cells; details: OCT1; for Clint ± SEM: quotient of vmax over Km; for selectivity ratio at 2 min: human, ratio between enantiomers;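 on all read-outs here: enantiomers quantified inside cells by chiral HPLC-MS/MS, uptake normalized to total protein from bicinchoninic acid assay, substrates applied in HBSS+ buffer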
T2 sequence (O15245 1-554): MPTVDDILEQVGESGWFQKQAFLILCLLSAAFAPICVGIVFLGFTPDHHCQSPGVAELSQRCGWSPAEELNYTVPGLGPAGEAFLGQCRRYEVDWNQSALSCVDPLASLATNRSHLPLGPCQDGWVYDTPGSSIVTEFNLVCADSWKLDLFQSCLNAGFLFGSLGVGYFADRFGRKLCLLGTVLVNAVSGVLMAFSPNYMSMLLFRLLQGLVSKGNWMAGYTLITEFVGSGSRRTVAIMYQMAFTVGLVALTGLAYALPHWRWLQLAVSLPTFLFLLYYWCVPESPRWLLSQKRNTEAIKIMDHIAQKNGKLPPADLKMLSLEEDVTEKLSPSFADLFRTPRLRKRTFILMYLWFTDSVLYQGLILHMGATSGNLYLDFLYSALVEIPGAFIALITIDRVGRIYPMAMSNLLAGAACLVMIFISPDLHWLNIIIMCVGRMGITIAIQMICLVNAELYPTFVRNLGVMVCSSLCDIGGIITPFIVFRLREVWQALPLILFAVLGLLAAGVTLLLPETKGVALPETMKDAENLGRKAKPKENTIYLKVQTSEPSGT

OCT3 = target: T3, OCT3 (Homo sapiens, UniProt O75751); experiment: Stereoselective uptake into OCT3-overexpressing HEK293 cells; details: for Clint ± SEM / Stereoselectivity Vmax: OCT3; for Clint ± SEM: quotient of vmax over Km; for Stereoselectivity Vmax: ratio between enantiomers, given as for (S) or for 2; for selectivity ratio at 2 min: human, HEK293 cells stably overexpressing human OCT3;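 on all read-outs here: intracellular accumulation in HEK293 cells measured by chiral HPLC-MS/MS after a 2 min substrate exposure at 37 °C, uptake normalized to total protein (bicinchoninic acid assay)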
T3 sequence (O75751 1-556): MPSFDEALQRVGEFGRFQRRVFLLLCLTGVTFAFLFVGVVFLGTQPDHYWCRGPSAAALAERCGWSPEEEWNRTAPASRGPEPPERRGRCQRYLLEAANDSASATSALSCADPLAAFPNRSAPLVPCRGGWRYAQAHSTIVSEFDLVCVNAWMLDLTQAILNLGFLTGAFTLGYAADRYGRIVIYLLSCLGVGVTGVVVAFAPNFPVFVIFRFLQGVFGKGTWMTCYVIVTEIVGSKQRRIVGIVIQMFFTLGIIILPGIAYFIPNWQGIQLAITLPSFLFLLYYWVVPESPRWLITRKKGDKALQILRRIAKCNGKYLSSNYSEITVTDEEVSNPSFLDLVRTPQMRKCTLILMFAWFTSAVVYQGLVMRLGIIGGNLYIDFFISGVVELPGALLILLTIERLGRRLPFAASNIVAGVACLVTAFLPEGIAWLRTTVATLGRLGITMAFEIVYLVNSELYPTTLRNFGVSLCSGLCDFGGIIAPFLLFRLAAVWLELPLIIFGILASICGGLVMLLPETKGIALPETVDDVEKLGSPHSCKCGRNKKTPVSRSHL

OCT2 = target: T4, OCT2 (Homo sapiens, UniProt O15244); experiment: Stereoselective uptake into OCT2 (wild-type)-overexpressing HEK293 cells; details: OCT2; for Clint ± SEM: quotient of vmax over Km; for selectivity ratio at 2 min: human, ratio between enantiomers
T4 sequence (O15244 1-555 S270A): T1 sequence (O15244 1-555 S270A)

[2] = test system: OCT2 wild-type versus A270S variant; experiment: Stereoselective uptake into OCT2 A270S variant-overexpressing HEK293 cells; details: human;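 further: uptake into HEK293 cells stably overexpressing human OCT2 variants, intracellular enantiomers quantified by chiral HPLC-MS/MS and normalized to total protein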
[3] = substrate: CNCC(O)c1ccc(O)c(OC)c1; experiment: cells, lysate or membranes; details: other: HEK293 cells overexpressing human OCT2; racemic substrate, two minutes; net uptake minus empty vector control; 37.0 °C
[4] = substrate: CNCC(O)c1ccccc1; experiment: cells, lysate or membranes; details: other: HEK293 cells overexpressing human OCT2; racemic substrate, two minutes; net uptake minus empty vector control; 37.0 °C
[5] = substrate: CNC[C@@H](O)c1ccc(O)cc1; experiment: cells, lysate or membranes; details: other: HEK293 cells overexpressing human OCT2; racemic substrate, two minutes; net uptake minus empty vector control; 37.0 °C
[6] = substrate: CNC[C@@H](O)c1cccc(O)c1; experiment: cells, lysate or membranes; details: other: HEK293 cells overexpressing human OCT2; racemic substrate, two minutes; net uptake minus empty vector control; 37.0 °C
[7] = substrate: CNC[C@H](O)c1cccc(O)c1; experiment: cells, lysate or membranes; details: other: HEK293 cells overexpressing human OCT2; racemic substrate, two minutes; net uptake minus empty vector control; 37.0 °C
[8] = substrate: COc1cc(C(O)CN)ccc1O; experiment: cells, lysate or membranes; details: other: HEK293 cells overexpressing human OCT2; racemic substrate, two minutes; net uptake minus empty vector control; 37.0 °C
[9] = substrate: NCC(O)c1cccc(O)c1; experiment: cells, lysate or membranes; details: other: HEK293 cells overexpressing human OCT2; racemic substrate, two minutes; net uptake minus empty vector control; 37.0 °C
[10] = substrate: NC[C@H](O)c1ccc(O)cc1; experiment: cells, lysate or membranes; details: other: HEK293 cells overexpressing human OCT2; racemic substrate, two minutes; net uptake minus empty vector control; 37.0 °C
[11] = substrate: [H][C@](O)(CNC)c1ccc(O)cc1; experiment: cells, lysate or membranes; details: other: HEK293 cells overexpressing human OCT2; racemic substrate, two minutes; net uptake minus empty vector control; 37.0 °C
[12] = HEK293 cells stably overexpressing human OCT1, Stereoselectivity ClInt, given as for (R) or for 1 (also 1.00-fold for 1/2)
[13] = HEK293 cells stably overexpressing human OCT1, Stereoselectivity Km, given as for (R) or for 1 (first-eluting)
[14] = HEK293 cells stably overexpressing human OCT1, Stereoselectivity Vmax, given as for (R) or for 1
[15] = HEK293 cells stably overexpressing human wild-type OCT2, Stereoselectivity ClInt, given as for (R) or for 1
[16] = HEK293 cells stably overexpressing human wild-type OCT2, Stereoselectivity Km, given as for (R) or for 1 (first-eluting)
[17] = HEK293 cells stably overexpressing human wild-type OCT2, Stereoselectivity Vmax, given as for (R) or for 1

Chain of NET (P23975 whole entry): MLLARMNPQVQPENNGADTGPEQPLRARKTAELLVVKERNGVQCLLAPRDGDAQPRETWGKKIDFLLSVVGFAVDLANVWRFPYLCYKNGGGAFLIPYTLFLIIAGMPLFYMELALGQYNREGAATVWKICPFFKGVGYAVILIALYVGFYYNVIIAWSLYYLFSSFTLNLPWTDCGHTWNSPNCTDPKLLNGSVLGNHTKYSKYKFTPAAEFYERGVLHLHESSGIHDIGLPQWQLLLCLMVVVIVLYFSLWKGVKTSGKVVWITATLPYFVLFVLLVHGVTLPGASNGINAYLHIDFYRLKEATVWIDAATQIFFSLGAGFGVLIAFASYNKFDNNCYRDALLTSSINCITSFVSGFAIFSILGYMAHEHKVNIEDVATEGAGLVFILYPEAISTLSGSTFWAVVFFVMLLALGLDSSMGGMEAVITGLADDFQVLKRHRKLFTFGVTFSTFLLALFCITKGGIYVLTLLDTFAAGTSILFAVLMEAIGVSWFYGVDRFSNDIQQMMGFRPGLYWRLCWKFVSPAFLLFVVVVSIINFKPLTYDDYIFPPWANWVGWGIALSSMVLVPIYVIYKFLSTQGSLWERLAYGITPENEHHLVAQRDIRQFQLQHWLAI
Chain of SERT (P31645 whole entry): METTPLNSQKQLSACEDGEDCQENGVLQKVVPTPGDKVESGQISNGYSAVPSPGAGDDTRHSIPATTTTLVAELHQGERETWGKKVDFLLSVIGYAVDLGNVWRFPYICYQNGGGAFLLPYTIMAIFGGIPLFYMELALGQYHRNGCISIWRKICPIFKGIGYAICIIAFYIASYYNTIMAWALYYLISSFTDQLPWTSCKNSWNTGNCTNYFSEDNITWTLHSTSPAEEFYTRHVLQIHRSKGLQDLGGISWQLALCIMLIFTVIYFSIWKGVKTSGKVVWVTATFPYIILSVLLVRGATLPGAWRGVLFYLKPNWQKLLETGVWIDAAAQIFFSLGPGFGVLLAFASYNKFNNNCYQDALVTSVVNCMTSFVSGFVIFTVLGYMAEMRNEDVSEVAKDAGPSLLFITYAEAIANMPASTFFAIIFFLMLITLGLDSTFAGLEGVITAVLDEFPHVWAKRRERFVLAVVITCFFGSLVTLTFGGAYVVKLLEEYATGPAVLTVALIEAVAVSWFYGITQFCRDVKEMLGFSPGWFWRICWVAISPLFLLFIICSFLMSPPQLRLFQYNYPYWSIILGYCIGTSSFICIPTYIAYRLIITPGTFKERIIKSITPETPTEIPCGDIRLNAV
Chain of DAT (Q01959 whole entry): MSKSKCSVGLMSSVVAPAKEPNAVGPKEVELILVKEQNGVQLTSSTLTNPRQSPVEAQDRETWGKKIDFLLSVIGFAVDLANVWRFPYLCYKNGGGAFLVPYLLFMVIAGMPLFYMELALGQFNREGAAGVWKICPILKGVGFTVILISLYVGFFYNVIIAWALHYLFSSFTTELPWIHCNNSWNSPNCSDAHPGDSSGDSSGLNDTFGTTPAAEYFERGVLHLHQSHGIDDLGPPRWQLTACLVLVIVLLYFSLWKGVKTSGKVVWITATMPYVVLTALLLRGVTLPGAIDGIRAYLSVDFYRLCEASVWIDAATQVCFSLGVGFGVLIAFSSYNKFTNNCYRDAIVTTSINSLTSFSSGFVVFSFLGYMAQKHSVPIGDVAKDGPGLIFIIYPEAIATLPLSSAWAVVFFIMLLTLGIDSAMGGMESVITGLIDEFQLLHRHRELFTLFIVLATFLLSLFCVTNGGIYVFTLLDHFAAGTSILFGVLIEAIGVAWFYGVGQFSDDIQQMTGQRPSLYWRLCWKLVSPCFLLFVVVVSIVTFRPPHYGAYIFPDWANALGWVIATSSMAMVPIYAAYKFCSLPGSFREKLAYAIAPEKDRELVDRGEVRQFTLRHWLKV

In the case of `CC1NCCc2cc(O)c(O)cc21` (centres unmarked) [Salsolinol], the “Cytotoxicity of (S)-enantiomer versus (R)-enantiomer” value [1] is given as “almost two-fold higher”, the selectivity ratio at 2 min, 100 μM (OCT2 A270S variant) is given as 1.1 and the selectivity ratio at 2 min, 100 μM (OCT2 (wild-type)) is given as 1.06.

In the case of `NC[C@@H](O)c1ccc(O)cc1` [(S)-Octopamine], the “Clint ± SEM” value (NET) is reported as 198 mL × g Protein^−1 × min^−1, the “Stereoselectivity Vmax” value (NET) is reported as 1.30 fold and the “Stereoselectivity Km” value (NET) is reported as 1.55 fold. For the same molecule, the selectivity ratio at 2 min (NET) was 1.19, the “Clint ± SEM” value (DAT) was 100 mL × g Protein^−1 × min^−1 and the “Stereoselectivity Vmax” value (DAT) was 1.05 fold. The “Stereoselectivity Km” value (DAT) was 1.05 fold, the selectivity ratio at 2 min (DAT) was 1 and the “Clint ± SEM” value (SERT) was 2.42 mL × g Protein^−1 × min^−1. For the same molecule, the “Stereoselectivity Vmax” value (SERT) was 2.38 fold, the “Stereoselectivity Km” value (SERT) was 1.39 fold and the selectivity ratio at 2 min (SERT) was 1.71. The “Clint ± SEM” value (OCT1) was 4.32 mL × g Protein^−1 × min^−1, the selectivity ratio at 2 min (OCT1; [12]) was 1.05 and the selectivity ratio at 2 min (OCT1; [13]) was 1.04. The selectivity ratio at 2 min (OCT1; [14]) was 1.09, the “Clint ± SEM” value (OCT3) was 53.4 mL × g Protein^−1 × min^−1 and the “Stereoselectivity Vmax” value (OCT3) was 1.10 fold. The selectivity ratio at 2 min (OCT3) was 1.38, the “Clint ± SEM” value (OCT2) was 30.2 mL × g Protein^−1 × min^−1 and the selectivity ratio at 2 min (OCT2; [15]) was 1.31. It also gave a selectivity ratio at 2 min (OCT2; [16]) of 1.63, a selectivity ratio at 2 min (OCT2; [17]) of 2.14 and a selectivity ratio at 2 min, 100 μM [2] of 1.17.

For `NC[C@H](O)c1ccc(O)cc1` [(R)-Octopamine], the “Clint ± SEM” value (NET) was 166 mL × g Protein^−1 × min^−1, the “Stereoselectivity Vmax” value (NET) was 1.30 fold and the “Stereoselectivity Km” value (NET) was 1.55 fold. The selectivity ratio at 2 min (NET) was 1.19, the “Clint ± SEM” value (DAT) was 100 mL × g Protein^−1 × min^−1 and the “Stereoselectivity Vmax” value (DAT) was 1.05 fold. For the same molecule, the “Stereoselectivity Km” value (DAT) was 1.05 fold, the selectivity ratio at 2 min (DAT) was 1 and the “Clint ± SEM” value (SERT) was 4.14 mL × g Protein^−1 × min^−1. The “Stereoselectivity Vmax” value (SERT) was 2.38 fold, the “Stereoselectivity Km” value (SERT) was 1.39 fold and the selectivity ratio at 2 min (SERT) was 1.71. The “Clint ± SEM” value (OCT1) was 4.53 mL × g Protein^−1 × min^−1, the selectivity ratio at 2 min (OCT1; [12]) was 1.05 and the selectivity ratio at 2 min (OCT1; [13]) was 1.04. The selectivity ratio at 2 min (OCT1; [14]) was 1.09, the “Clint ± SEM” value (OCT3) was 38.8 mL × g Protein^−1 × min^−1 and the “Stereoselectivity Vmax” value (OCT3) was 1.10 fold. The selectivity ratio at 2 min (OCT3) was 1.38, the “Clint ± SEM” value (OCT2) was 39.6 mL × g Protein^−1 × min^−1 and the selectivity ratio at 2 min (OCT2; [15]) was 1.31. It also gave a selectivity ratio at 2 min (OCT2; [16]) of 1.63, a selectivity ratio at 2 min (OCT2; [17]) of 2.14 and a selectivity ratio at 2 min, 100 μM [2] of 1.2.

B1: OCT2 (Homo sapiens; S270A) (protein)
chain: T1 sequence (O15244 1-555 S270A)
For B1, the Km [3] was 54.7 µM and 68.1 µM, the Km [4] was 12.8 µM and 19.3 µM and the Vmax [4] was 329 pmol × mg Protein^−1 × min^−1 and 261 pmol × mg Protein^−1 × min^−1. For the same molecule, the Km [5] was 214 µM, the Vmax [5] was 5307 pmol × mg Protein^−1 × min^−1 and the Km [6] was 112 µM. For the same molecule, the Vmax [6] was 3068 pmol × mg Protein^−1 × min^−1, the Km [7] was 212 µM and the Vmax [7] was 6263 pmol × mg Protein^−1 × min^−1. The Km [8] was 464 µM and 613 µM, the Vmax [8] was 2747 pmol × mg Protein^−1 × min^−1 and 5665 pmol × mg Protein^−1 × min^−1 and the Km [9] was 911 µM and 582 µM. The Vmax [9] was 33143 pmol × mg Protein^−1 × min^−1 and 15157 pmol × mg Protein^−1 × min^−1, the Km [10] was 636 µM and the Vmax [10] was 25182 pmol × mg Protein^−1 × min^−1. For the same molecule, the Km [11] was 443 µM and the Vmax [11] was 10877 pmol × mg Protein^−1 × min^−1.
